Key:
TRβ = target: T1, TRβ (Homo sapiens, UniProt P10828); assay: Thyroid-hormone reporter-gene assay, TRβ (Gal4 hybrid, luciferase); type: cell-based; conditions: for EC50: HEK293-derived reporter cells, 24 hr treatment, luciferase readout; for T3-SI, selectivity index (SI) calculated as EC50 (TRα)/EC50 (TRβ): TRα vs TRβ reporter-gene assays
T1 construct: expressed in transfected cells; host or cells: HEK293-derived reporter cell line
T1 sequence (P10828 217-461 limits assumed): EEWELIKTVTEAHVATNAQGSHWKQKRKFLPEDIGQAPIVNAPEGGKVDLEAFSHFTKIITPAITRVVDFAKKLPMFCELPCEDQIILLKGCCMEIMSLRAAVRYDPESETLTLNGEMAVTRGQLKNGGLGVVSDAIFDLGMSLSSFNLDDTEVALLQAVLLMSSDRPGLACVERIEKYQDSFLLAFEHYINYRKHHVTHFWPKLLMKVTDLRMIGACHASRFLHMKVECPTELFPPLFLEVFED
Description: (§1) Compounds were tested for thyroid-hormone receptor activity using TR reporter-gene assays. Reporter cells used in the assays express a TR-receptor hybrid (either TRα or TRO) in which the native N-terminal DNA binding domain (DBD) has been replaced with that of the yeast Gal4 DBD. The reporter gene, firefly luciferase, is functionally linked to the Gal4 upstream activation sequence (UAS). Both cell lines were derived from human embryonic kidney (HEK293).
(§2) Step 1: A suspension of reporter cells was prepared in cell recovery medium containing 10% charcoal-stripped FBS, and dispensed into assay plates. The plates were pre-incubated for 6 hours in a cell culture incubator (37° C./5% CO2/85% humidity).
(§3) These intermediate stocks were subsequently diluted directly into compound screening medium containing 10% charcoal-stripped FBS to generate “2×-concentration” treatment media (containing 0.2, 0.4 or 0.8% DMSO).
(§4) Step 3: At the end of the pre-incubation period, culture media were discarded from the assay plates, and all wells received 100 μl of compound screening medium. 100 μl of each of the previously prepared “2×-concentration” treatment media were dispensed into duplicate assay wells, thereby achieving the desired final treatment concentrations. The final concentration of DMSO in all assay wells was 0.1, 0.2 or 0.4%. Assay plates were incubated for 24 hr in a cell culture incubator (37° C./5% CO2/85% humidity).
(§5) Step 4: At the 24 h assay endpoint, treatment media were discarded and 100 µl/well of luciferase detection reagent was added. Relative luminometer units (RLUs) were quantified from each assay well.

TRα = target: T2, TRα (Homo sapiens, UniProt P10827); assay: Thyroid-hormone reporter-gene assay, TRα (Gal4 hybrid, luciferase); type: cell-based; conditions: HEK293-derived reporter cells, 24 hr treatment, luciferase readout
T2 construct: expressed in transfected cells; host or cells: HEK293-derived reporter cell line
T2 sequence (P10827 128-410 isoform P10827-2 limits assumed): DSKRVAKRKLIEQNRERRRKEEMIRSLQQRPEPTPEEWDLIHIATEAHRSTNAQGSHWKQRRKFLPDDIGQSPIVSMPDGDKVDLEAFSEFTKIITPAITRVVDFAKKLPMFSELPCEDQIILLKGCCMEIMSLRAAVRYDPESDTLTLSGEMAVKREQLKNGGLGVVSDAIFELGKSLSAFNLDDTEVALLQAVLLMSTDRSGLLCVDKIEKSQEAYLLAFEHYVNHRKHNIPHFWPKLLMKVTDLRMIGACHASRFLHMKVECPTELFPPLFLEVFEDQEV
Description: as §1, §2, §3, §4, §5

[1] = target: T3, recombinant human FAAH (rhFAAH) (Homo sapiens, UniProt O00519); assay: FAAH substrate evaluation (formation of acid metabolite, LC-MS/MS); type: in vitro ADME; conditions: 0.5 ng/μL rhFAAH, 1 μM test compound, pH 8.0, room temperature, 0-60 minutes
T3 construct: purchased Cayman Chemical (Ann Arbor, Mich., USA)
T3 sequence (O00519 1-579): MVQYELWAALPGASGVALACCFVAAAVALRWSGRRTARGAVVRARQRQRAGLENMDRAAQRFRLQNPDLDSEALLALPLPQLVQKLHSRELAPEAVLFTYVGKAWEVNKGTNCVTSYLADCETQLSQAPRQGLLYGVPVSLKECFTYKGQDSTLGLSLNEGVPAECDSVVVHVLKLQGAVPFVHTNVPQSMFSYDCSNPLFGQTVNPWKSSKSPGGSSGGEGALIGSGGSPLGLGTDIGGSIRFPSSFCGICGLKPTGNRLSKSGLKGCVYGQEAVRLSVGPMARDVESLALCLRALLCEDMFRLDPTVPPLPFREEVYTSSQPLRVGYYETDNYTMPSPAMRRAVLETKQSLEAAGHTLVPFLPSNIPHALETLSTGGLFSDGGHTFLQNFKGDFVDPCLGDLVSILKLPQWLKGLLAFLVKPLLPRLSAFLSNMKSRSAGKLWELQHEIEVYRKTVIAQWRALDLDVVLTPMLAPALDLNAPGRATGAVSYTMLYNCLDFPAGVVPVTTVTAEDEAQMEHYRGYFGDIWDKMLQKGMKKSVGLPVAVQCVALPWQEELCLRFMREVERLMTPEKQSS
Description: Purified recombinant human FAAH (rhFAAH) was purchased from Cayman Chemical (Ann Arbor, Mich., USA). The total volume for each incubation was 400 μL containing a final 0.5 ng/μL rhFAAH, 1 μM test compound, 1.25% ethanol or 1 μM PF-3845 (FAAH inhibitor), and 0.1% bovine serum albumin in Tris-EDTA buffer at pH 8.0). The positive control was LL-341001. The incubation was conducted at the room temperature. At 0, 5, 15, 30 and 60 minutes, an aliquot of 30 μL reaction mixtures was removed and mixed with 300 μL acetonitrile containing 5 ng/mL terfenadine and 10 ng/mL tolbutamide as internal standards to quench the reaction. The resulting mixture was centrifuged at 4000 rpm, 4° C. for 15 minutes, and 100 μL supernatant was ready for LC-MS/MS analysis to measure the formation of acid metabolite.
Acquity Ultra Performance LC system from Waters was used for sample analysis. The chromatography was performed on a reverse phase Kinetex 2.6 μm C18 column, 2.1×30 mm, 100 Å. The mobile phase A comprised of 0.10% formic acid in water and mobile phase B comprised of 0.1% formic acid in acetonitrile with a 2-min run time at the flow rate of 0.8 mL/min for the acid metabolite from positive control or a 1.5 min run time at the flow rate of 0.9 mL/min for the acid metabolite of test compounds. The mass spectrometer (API-5500 and API Q Trap 4000 Applied Biosystems/MDS SCIEX Instruments, Framingham, Mass., USA) was operated under ESI positive or negative ion MRM mode.
The formation of acid metabolite was monitored and quantified using one calibration point of 1 μM. The observed rate constant (ke) for the acid metabolite formation was calculated by plotting the metabolite concentration versus time of incubation with the slope being ke and is shown in Table 4.

| EC50 (TRβ) [µM] | T3-SI, selectivity index (SI) calculated as EC50 (TRα)/EC50 (TRβ) (TRβ) | EC50 (TRα) [µM] | Compound | ke, observed rate constant for the acid metabolite formation [1] |
| --- | --- | --- | --- | --- |
| 0.1 to 1 | ++ (++3X<T3−SI≤30X) | > 1 | CC(C)c1c(O)ccc(Cc2ccc(OCC(=O)O)c3c2CCC3)c1F [Compound 2, 2-((7-(2-fluoro-4-hydroxy-3-isopropylbenzyl)-2,3-dihydro-1H-inden-4-yl)oxy)acetic acid] | – |
| > 1 | – | > 1 | CC(C)c1c(O)ccc(Cc2ccc(OCC(=O)O)c3c2C(C)CC3)c1F (centres unmarked) [Compound 4, 2-((7-(2-fluoro-4-hydroxy-3-isopropylbenzyl)-1-methyl-2,3-dihydro-1H-inden-4-yl)oxy)acetic acid] | – |
| 0.01 to 0.1 | ++ (++3X<T3−SI≤30X) | 0.1 to 1 | Cc1cc(OCC(=O)O)c2c(c1Cc1ccc(O)c(C(C)C)c1)CCC2 [Compound 6, 2-((7-(4-hydroxy-3-isopropylbenzyl)-6-methyl-2,3-dihydro-1H-inden-4-yl)oxy)acetic acid] | – |
| < 0.01 | ++ (++3X<T3−SI≤30X) | 0.01 to 0.1 | Cc1cc(OCC(=O)O)c2c(c1Cc1ccc(O)c(C(C)c3ccc(F)cc3)c1)CCC2 (centres unmarked) [Compound 8, 2-((7-(3-(1-(4-fluorophenyl)ethyl)-4-hydroxybenzyl)-6-methyl-2,3-dihydro-1H-inden-4-yl)oxy)acetic acid] | – |
| < 0.01 | ++ (++3X<T3−SI≤30X) | 0.01 to 0.1 | Cc1cc(OCC(=O)O)c2c(c1Cc1ccc(O)c(C(C)C)c1F)CCC2 [Compound 10, 2-((7-(2-fluoro-4-hydroxy-3-isopropylbenzyl)-6-methyl-2,3-dihydro-1H-inden-4-yl)oxy)acetic acid] | – |
| – | – | – | CNC(=O)COc1cc(C)c(Cc2ccc(O)c(C(C)C)c2F)c2c1CCC2 [Compound 11, 2-((7-(2-fluoro-4-hydroxy-3-isopropylbenzyl)-6-methyl-2,3-dihydro-1H-inden-4-yl)oxy)-N-methylacetamide] | A (A = ke is less than 2.0 and more than or equal to 0.05) |
| 0.1 to 1 | ++ (++3X<T3−SI≤30X) | > 1 | CC(C)c1cc(Cc2ccc(OCC(=O)O)c3ccccc23)ccc1O [Compound 14, 2-((4-(4-hydroxy-3-isopropylbenzyl)naphthalen-1-yl)oxy)acetic acid] | – |
| > 1 | ++ (++3X<T3−SI≤30X) | > 1 | CC(C)c1cc(Cc2cc(F)c(OCC(=O)O)c3c2CCC3)ccc1O [Compound 16, 2-((5-fluoro-7-(4-hydroxy-3-isopropylbenzyl)-2,3-dihydro-1H-inden-4-yl)oxy)acetic acid] | – |
| > 1 | + (+T3−SI≤3X) | > 1 | CC(C)c1cc(Cc2cc(F)c(OCC(=O)O)cc2C(F)(F)F)ccc1O [Compound 18, 2-(2-fluoro-4-(4-hydroxy-3-isopropylbenzyl)-5-(trifluoromethyl)phenoxy)acetic acid] | – |
| 0.1 to 1 | ++ (++3X<T3−SI≤30X) | > 1 | CC(C)c1c(O)ccc(Cc2ccc(OCC(=O)O)cc2Cl)c1F [Compound 20, 2-(3-chloro-4-(2-fluoro-4-hydroxy-3-isopropylbenzyl)phenoxy)acetic acid] | – |
| 0.1 to 1 | ++ (++3X<T3−SI≤30X) | > 1 | C=C(C)c1cc(OCC(=O)O)ccc1Cc1ccc(O)c(C(C)C)c1F [Compound 23, 2-(4-(2-fluoro-4-hydroxy-3-isopropylbenzyl)-3-(prop-1-en-2-yl)phenoxy)acetic acid] | – |
| 0.01 to 0.1 | ++ (++3X<T3−SI≤30X) | 0.1 to 1 | CC(C)c1cc(OCC(=O)O)ccc1Cc1ccc(O)c(C(C)C)c1F [Compound 25, 2-(4-(2-fluoro-4-hydroxy-3-isopropylbenzyl)-3-isopropylphenoxy)acetic acid] | – |
| > 1 | – | > 1 | CC(C)c1c(O)ccc(Cc2ccc(OCC(=O)O)c(F)c2Cl)c1F [Compound 27, 2-(3-chloro-2-fluoro-4-(2-fluoro-4-hydroxy-3-isopropylbenzyl)phenoxy)acetic acid] | – |
| 0.1 to 1 | +++ (+++T3−SI>30X) | > 1 | CC(C)c1c(O)ccc(Cc2cc(F)c(OCC(=O)O)cc2Cl)c1F [Compound 29, 2-(5-chloro-2-fluoro-4-(2-fluoro-4-hydroxy-3-isopropylbenzyl)phenoxy)acetic acid] | – |
| > 1 | ++ (++3X<T3−SI≤30X) | > 1 | CC(C)c1c(O)ccc(Cc2ccc(OCC(=O)O)c(F)c2C(C)C)c1F [Compound 31, 2-(2-fluoro-4-(2-fluoro-4-hydroxy-3-isopropylbenzyl)-3-isopropylphenoxy)acetic acid] | – |
| 0.1 to 1 | ++ (++3X<T3−SI≤30X) | 0.1 to 1 | CC(C)c1cc(Cc2cc(F)c(OCC(=O)O)cc2C(C)C)ccc1O [Compound 36, 2-(2-fluoro-4-(4-hydroxy-3-isopropylbenzyl)-5-isopropylphenoxy)acetic acid] | – |
| > 1 | – | – | CC(C)c1cc(Cc2cc(F)c(OCC(=O)O)c(F)c2Cl)ccc1O [Compound 38, 2-(3-chloro-2,6-difluoro-4-(4-hydroxy-3-isopropylbenzyl)phenoxy)acetic acid] | – |
| – | – | – | CNC(=O)COc1cc(Cl)c(Cc2ccc(O)c(C(C)C)c2F)cc1F [Compound 39, 2-(5-chloro-2-fluoro-4-(2-fluoro-4-hydroxy-3-isopropylbenzyl)phenoxy)-N-methylacetamide] | A (A = ke is less than 2.0 and more than or equal to 0.05) |
| – | – | – | C=C(C)c1cc(OCC(=O)NC)ccc1Cc1ccc(O)c(C(C)C)c1F [Compound 41, 2-(4-(2-fluoro-4-hydroxy-3-isopropylbenzyl)-3-(prop-1-en-2-yl)phenoxy)-N-methylacetamide] | A (A = ke is less than 2.0 and more than or equal to 0.05) |

Source: patent publication US20230242473A1, “THYROMIMETICS” (Autobahn Therapeutics, Inc., priority 2020, published 2023)
